Entries after “also recorded” stand apart in the source; their conditions may differ.
Key:
[1] = target: T1, streptavidin binding to Gly-Tyr-Gly-Gln-Pro-His-Gly-Gly sequence attached to resin A (Streptomyces avidinii, UniProt P22629)
T1 construct: purchased Sigma (streptavidin-phosphatase); Commonwealth Biotechnologies Inc. (peptide resin)

[2] = target: streptavidin binding to the prion protein (Streptomyces avidinii, UniProt P22629)
Streptavidin = Streptavidin (Streptomyces avidinii, UniProt P22629); conditions: cited from earlier work
Streptavidin, sequence (P22629 25-183): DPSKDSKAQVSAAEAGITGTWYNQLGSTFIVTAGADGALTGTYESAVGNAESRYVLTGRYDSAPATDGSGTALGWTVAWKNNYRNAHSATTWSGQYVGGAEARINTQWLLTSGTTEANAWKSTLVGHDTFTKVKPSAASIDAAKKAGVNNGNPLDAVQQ

streptavidin binding to the prion protein, sequence (P22629 25-183 limits assumed): as the sequence (P22629 25-183) above
T1 sequence (P22629 25-183): as above

O=C(O)CCCC[C@@H]1SC[C@@H]2NC(=O)N[C@@H]21 [D-biotin]
phosphatase activity in flow through of resin A after biotin pre-incubation [1]: significant phosphatase activity; also recorded: found in the first few column volumes
competition with the production of signal ([2]; D-biotin added after binding of streptavidin to the proteins): did not compete with the production of signal
inhibition of banding at 30-34 kDa ([2]; streptavidin-phosphatase mixed with 10 μM D-biotin prior to addition to the Western blot): completely inhibited
affinity of streptavidin to biotin (Streptavidin): ~10^15

From patent US6750025B1 (priority 1998, dated 2004)
